Test results from patent publication US7964720B2, “Method of making porphyrins” (North Carolina State University, priority 2007, dated 2011).

What was measured:
[1] = background statement; cited from earlier work
[2] = Excerpt: 4. Solubility. […] We compared the solubility of 1, Pd-1, Zn-1 and Mg-1 in common organic solvents (CH2Cl2, THF, MeOH, ethyl acetate, toluene).
[3] = Stability of the magnesium chelate in solution and on silica column chromatography; type: physicochemical
Procedure: Thus, refluxing a mixture of 2 (100 mM) in toluene containing DBU (10 equiv vs. 2) and MgBr2 (3 equiv) in the presence of air afforded Mg(II)porphine (Mg-1) in 41% yield. Note that no quinone oxidant is required. Mg(II)porphine was purified by filtration through an alumina column. No free base porphine was detected in the reaction mixture. […] Neither starting material nor macrocyclic byproducts were detected. Therefore we performed the purification of Mg-1 without column chromatography. The crude reaction mixture was concentrated. The resulting oily material was treated with THF, filtered (to remove the polymeric material and inorganic salt), and filtrate was concentrated. Subsequent washing with water (to remove an excess of DBU) and crystallization from ethanol/water afforded Mg-1 in satisfactory purity. […] Note that Mg(II)porphine (Mg-1) was previously prepared by metalation of 1.^2

| general trend in solubility [2] | solubility in common organic solvents [2] | stability in solution ([3]; in solution) | behaviour upon silica column chromatography ([3]; silica column chromatography) | Compound | solubility of the free base [1] |
| --- | --- | --- | --- | --- | --- |
| Pd-1<1<Zn-1<<Mg-1 | poor solubility | – | – | C1=Cc2cc3ccc(cc4nc(cc5ccc(cc1n2)[nH]5)C=C4)[nH]3 [compound 1, Porphine] | extremely low solubility |
| Pd-1<1<Zn-1<<Mg-1 | sufficiently high | stable in solution | partial decomplexation | Mg(II)porphine [Mg-1] | – |
| Pd-1<1<Zn-1<<Mg-1 | – | – | – | Pd(II)porphine [Pd-1] | – |
| Pd-1<1<Zn-1<<Mg-1 | – | – | – | Zn(II)porphine [Zn-1] | – |
